Measured values published in patent publication US4681966A, “Intermediate for thiol based collagenase inhibitors” (G. D. Searle & Co., priority 1986, dated 1987).

Target: T1, Human Rheumatoid Synovial collagenase (Homo sapiens, UniProt P03956)
T1 construct: Synovial collagenase; from tissue; host or cells: human rheumatoid synovium (from the enzyme's printed name)
T1 sequence (P03956 100-469): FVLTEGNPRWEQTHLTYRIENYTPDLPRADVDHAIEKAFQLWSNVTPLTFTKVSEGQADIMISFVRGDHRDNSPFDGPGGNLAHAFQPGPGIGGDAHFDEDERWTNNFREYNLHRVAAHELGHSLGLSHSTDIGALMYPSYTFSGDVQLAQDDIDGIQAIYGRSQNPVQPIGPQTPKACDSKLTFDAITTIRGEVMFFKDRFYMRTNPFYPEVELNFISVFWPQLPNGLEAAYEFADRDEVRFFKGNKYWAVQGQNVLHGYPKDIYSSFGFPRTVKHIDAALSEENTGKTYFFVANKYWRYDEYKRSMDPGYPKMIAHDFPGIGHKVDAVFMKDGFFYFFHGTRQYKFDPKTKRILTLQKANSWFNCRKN
Assay: Inhibition of collagenase: acetyl 14C collagen degradation (Cawston and Barrett), concentration effecting 50% inhibition
Format: biochemical
Conditions: Table 3; comparison R1 = H vs CH3; 37° C., 16 hours, pH 7.6; read-out: IC50 against human rheumatoid sinovial [collagenase]
Description: This was determined following the procedure of Cawston and Barrett, Anal. Biochem,. 99, 340-345 (1979) whereby the 1 mM of the inhibitor being tested or dilutions thereof are incubated at 37° C. for 16 hours with native collagen and collagenase (buffered with Tris HCl--CaCl2; pH 7.6). The collagen is acetyl ^14 C collagen. The samples are centrifuged to sediment undigested collagen and an aliquot of the radiactive supernatant removed for assay on a scintillation counter as a measure of hydrolysis. The collagenase activity in the presence of 1 mM inhibitor, or a dilution thereof, is compared to activity in a control devoid of inhibitor and the results reported as that inhibitor concentration effecting 50% inhibition of the collagenase.
This was determined following the procedure of Cawston and Barrett, Anal. Biochem., 99, 340-345 (1979) whereby the 1 mM of the inhibitor being tested or dilutions thereof are incubated at 37° C. for 16 hours with native collagen and collagenase (buffered with Tris HCl--CaCl2; pH 7.6). The collagen is acetyl […] collagen. The samples are centrifuged to sediment undigested collagen and an aliquot of the radioactive supernatant removed for assay on a scintillation counter as a measure of hydrolysis. […]

`CNC(=O)[C@@H](NC(=O)C(CC(C)C)C(C)S)[C@@H](C)OCc1ccccc1` (stereo partly drawn) [Example 6 A, N-[2-(1-Mercaptoethyl)-4-methylpentanoyl]-O-benzyl-L-threonine N-Methylamide] gave an IC50 of 450 nM.
